Patent US20050226879A1, “Methods and compositions related to inhibiting nuclear envelope breakdown” (priority 2002, published 2005)
“Also recorded” adds a separate entry of the source.

Key:
Assay type in all cases: biochemical, Xenopus laevis
[1] = test system: nuclear envelope breakdown; assay: In vitro nuclear disassembly assay (nuclei assembled in Xenopus egg extract, cyclin B added); conditions: for function in the nuclear disassembly assay (inhibition of nuclear envelope breakdown): synthetic peptides 44 μM, 15 minutes prior to sperm chromatin, assessed 75 and 95 minutes post cyclin, qualitative
Excerpt: To investigate whetherNup153 participates in nuclear envelope breakdown, recombinant fragments of Nup153 were examined to determine if they exert dominant negative effects on this process in vitro. Cell-free extracts derived from Xenopus eggs were used to form synthetic nuclei around sperm chromatin. This system offers the advantage of biochemical manipulation, while being well-established to robustly recapitulate both nuclear assembly as well as nuclear disassembly in response to mitotic signals (Murray, A. W. et al., Nature 339, 280-286 (1989)). Cycloheximide was included to prevent synthesis of cyclin, thereby arresting these extracts in interphase. After nuclei were assembled, a recombinant form of stabilized cyclin B was added to initiate mitotic events. […] Detection of import cargo provided the clearest visualization of whether a nuclear envelope was intact. […] A control GST fusion protein (FIG. 7B, lanes 1 and 5) likewise had no effect (FIG. 7C, panels g and h). […] In addition, nuclear import cargo was still concentrated in nuclei under mitotic conditions, confirming both the presence and integrity of the nuclear envelope (FIG. 7C, panel o). The effect of the Nup153 zinc finger was not due to selective stability of this fragment, as equivalent levels of recombinant protein were detected in each reaction by immunoblot following the last time point (FIG. 7B, lanes 9-11).
Interphase Xenopus egg extracts were prepared using egg lysis buffer (ELB: 250 mM sucrose, 50 mM KCl, 2.5 mM MgCl2, 10 mM Hepes pH 7.4) supplemented with 1 mM dithiothreitol (DTT), 5 μg/ml cytochalasin B, aprotinin and leupeptin (10 μg/ml each), and 50 μg/ml cycloheximide (Powers, et al., In Current Protocols in Cell Biology (New York, John Wiley & Sons), pp. 11.10.11-11.11.24, (2001). Eggswere lysed by centrifugation for 15 min at 10,000 rpm. The cytoplasmic layer was collected as crude extract. For preparation of fiactionated egg extract, the crude extract was further centrifuged for 1.5 hr at 268,000 x g. The clarified supernatant was removed and further centrifuged for 1 hr at 259,000 x g to remove residual membranes. The crude extract was stored in liquid nitrogen; fractionated extract was frozen in liquid nitrogen and then stored at −80° C.
(§1) Demembranated condensed sperm chromatin was isolated from Xenopus testes as described previously (Powers, et al., In Current Protocols in Cell Biology (New York, John Wiley & Sons), pp. 11.10.11-11.11.24, (2001). For the assembly of nuclei, an ATP-generating system was added to 28 μl of crude egg extract. Sperm chromatin was added and nuclei were allowed to assemble by incubation at room temperature. After assembly for 1 hr, import substrate (NLS-HSA-RITC, prepared as in (Powers, et al., In Current Protocols in Cell Biology (New York, John Wiley & Sons), pp. 11.10.11-11.11.24, (2001)) was added to the reaction and incubated for another 30 min to assess the presence of functional pores and membrane integrity. Recombinant cyclin B with a deletion that confers stability was then added to the nuclei to initiate mitotic events (Murray, A. W., et al., Nature 339, 280-286 (1989). The role of cyclin synthesis and degradation in the control of maturation promoting factor activity Nature 339, 280-286, 1989). Samples were taken from the reaction at the indicated time points to monitor by fluorescence microscopy using DHCC (Calbiochem, San Diego, Calif.) to monitor membranes and Hoechst 33258 (Calbiochem) to monitor DNA. To examine the effects of protein fragments and antibodies on nuclear disassembly, the reagent in question was incubated with crude extract for 15 minutes at room temperature prior to the addition of sperm chromatin and energy mix. As noted, for protein fragments either 3 μg (corresponding to final concentrations of 3.3 μM, 1.7 μM, and 1.5 μM for GST, GST-N, and GST-Z respectively) or 4 μg (corresponding to final concentrations of 4.4 μM and 2 μM for GST and GST-Z respectively) was added. […]

[2] = test system: nuclear envelope breakdown; assay: as above; conditions: peptide added after nuclear assembly has taken place
[3] = test system: nuclear assembly and NLS-mediated import; assay: Nuclear assembly and NLS import in egg extract (interphase); conditions: ARF peptide 22 μM present
Procedure: as §1, with “DNA.” for “DNA. To examine the effects of protein fragments and antibodies on nuclear disassembly, the reagent in question was incubated with crude extract for 15 minutes at room temperature prior to the addition of sperm chromatin and energy mix. As noted, for protein fragments either 3 μg (corresponding to final concentrations of 3.3 μM, 1.7 μM, and 1.5 μM for GST, GST-N, and GST-Z respectively) or 4 μg (corresponding to final concentrations of 4.4 μM and 2 μM for GST and GST-Z respectively) was added.”

Molecule: C[C@H]1CCC/C=C/[C@@H]2C[C@H](O)C[C@H]2[C@H](O)/C=C/C(=O)O1 [Brefeldin A]
- effect on nuclear envelope breakdown ([1]; Brefeldin A 0.6 μg/ml final, added 15 min prior to assembly): interferes with nuclear envelope breakdown; also recorded: very clear interference of nuclear envelope breakdown

Molecule: (C)ESGELKPEDDVTVGPAQK (CESGELKPEDDVTVGPAQK; N-terminal cysteine) [immunogenic peptide]
- protective effect of anti-β-COP antibodies on inclusion of the peptide ([1]; anti-β-COP 5 μg incubated with β-COP peptide 5 μg for 15 min before addition): blocked

Molecule: CEQTYRVCGGGS (CEQTLYRVCGGGS)
- function in the nuclear disassembly assay (inhibition of nuclear envelope breakdown) [1]: not inhibitory

Molecule: CGEHVRPSCGGGS
- function in the nuclear disassembly assay (inhibition of nuclear envelope breakdown) [1]: did not have activity

Molecule: CNNTRSPYCGGGS
- function in the nuclear disassembly assay (inhibition of nuclear envelope breakdown) [1]: not inhibitory

Molecule: CTHPFTHECGGGS [ZNFPHD1]
- inhibition of nuclear envelope breakdown ([1]; synthetic form as well as displayed form): capable of inhibiting nuclear envelope breakdown
- function in the nuclear disassembly assay (inhibition of nuclear envelope breakdown) [1]: inhibitory
- function in the nuclear disassembly assay [2]: not inhibitory

Molecule: EKKGFLGKFLNAF MNG (EKKGFLGKFLNAFMNG) [ARF 17-2]
- effect on nuclear disassembly ([1]; ARF peptides 22 μM, 75 minutes after cyclin addition): no significant affect

Molecule: GNMFANLFKGLFGKKE [ARF peptide]
- nuclei remaining intact ([1]; ARF peptide 22 μM, 75 minutes after cyclin addition): 90%
- nuclear assembly [3]: proceeded
